Where a name gives a salt, the structure may show the parent alone.
Biological target: T1, Recombinant human IKKβ (residues 1-737) (Homo sapiens, UniProt O14920)
T1 construct: Recombinant human IKKβ (residues 1-737); GST (C); made in house
T1 sequence (O14920 1-737): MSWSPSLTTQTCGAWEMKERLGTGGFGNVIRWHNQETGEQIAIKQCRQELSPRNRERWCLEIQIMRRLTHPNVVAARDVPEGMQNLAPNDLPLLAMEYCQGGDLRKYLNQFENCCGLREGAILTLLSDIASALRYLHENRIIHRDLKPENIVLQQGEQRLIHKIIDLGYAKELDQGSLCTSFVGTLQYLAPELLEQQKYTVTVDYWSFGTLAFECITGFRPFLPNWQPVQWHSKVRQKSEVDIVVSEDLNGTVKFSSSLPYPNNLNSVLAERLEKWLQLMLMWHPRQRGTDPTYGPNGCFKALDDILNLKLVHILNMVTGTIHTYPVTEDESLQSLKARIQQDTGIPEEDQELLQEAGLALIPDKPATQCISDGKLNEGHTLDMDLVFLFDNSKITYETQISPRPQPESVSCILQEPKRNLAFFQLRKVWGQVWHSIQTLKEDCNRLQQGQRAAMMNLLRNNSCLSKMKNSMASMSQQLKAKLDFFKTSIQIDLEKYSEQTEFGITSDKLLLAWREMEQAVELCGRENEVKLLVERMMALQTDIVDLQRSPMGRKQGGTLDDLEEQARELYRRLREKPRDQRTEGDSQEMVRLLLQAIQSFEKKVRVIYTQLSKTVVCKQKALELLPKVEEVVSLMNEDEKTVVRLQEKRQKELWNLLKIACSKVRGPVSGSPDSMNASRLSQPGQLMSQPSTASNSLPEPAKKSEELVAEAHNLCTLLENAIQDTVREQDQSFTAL
Assay: IKK2 assay (TR-FRET)
Type: biochemical
Details: ATP 1 μM final, read-out: pIC50 against IKK2 (converted)
Protocol: Recombinant human IKKβ (residues 1-737) was expressed in baculovirus as a C-terminal GST-tagged fusion protein, and its activity was assessed using a time-resolved fluorescence resonance energy transfer (TR-FRET) assay. Briefly, IKK2 (0.5 nM-5 nM final) diluted in assay buffer (50 mM HEPES, 10 mM MgCl2, 1 mM CHAPS pH 7.4 with 1 mM DTT and 0.01% w/v BSA) was added to wells containing various concentrations of compound or DMSO vehicle (1.7% final). The reaction was initiated by the addition of GST-IB substrate (25 nM final)/ATP (1 μM final), in a total volume of 6 μl. The reaction was incubated for 15 minutes at room temperature, then terminated by the addition of 3 μl of detection reagent in buffer containing 50 mM EDTA (100 mM HEPES pH 7.4, 150 mM NaCl, 50 mM EDTA and 0.01% w/v BSA) containing antiphosphoserine-IB-32/36 monoclonal antibody 12C2 (Cell Signalling Technology, Beverly Mass., USA) labelled with W-1024 europium chelate (Wallac OY, Turku, Finland), and an APC-labelled anti-GST antibody (Prozyme, San Leandro, Calif., USA) was added and the reaction was further incubated for 60 minutes at room temperature. The degree of phosphorylation of GST-IB was measured using a BMG Rubystar plate reader (BMG Labtech, Aylesbury, UK) as a ratio of specific 665 nm energy transfer signal to reference europium 620 nm signal.

Structure (SMILES) | IC50 [µM]
CCS(=O)(=O)N1CCC(c2c[nH]c3c(C(N)=O)cc(-c4cnn(CCN(C)C)c4)cc23)CC1 [Example 252, 5-{1-[2-(dimethylamino)ethyl]-1H-pyrazol-4-yl}-3-[1-(ethylsulfonyl)-4-piperidinyl]-1H-indole-7-carboxamide] | ≤ 10
CCS(=O)(=O)N1CCC(c2c[nH]c3c(C(N)=O)cc(-c4cc(F)cc(CNC(C)C)c4)cc23)CC1 [Example 285, 3-[1-(ethylsulfonyl)-4-piperidinyl]-5-(3-fluoro-5-{[(1-methylethyl)amino]methyl}phenyl)-1H-indole-7-carboxamide trifluoroacetate] | ≤ 10
CCS(=O)(=O)N1CCC(c2c[nH]c3c(C(N)=O)cc(-c4cc(F)cc(CNC)c4)cc23)CC1 [Example 282, 3-[1-(ethylsulfonyl)-4-piperidinyl]-5-{3-fluoro-5-[(methylamino)methyl]phenyl}-1H-indole-7-carboxamide trifluoroacetate] | ≤ 10
CCS(=O)(=O)N1CCC(c2c[nH]c3c(C(N)=O)cc(-c4csc(CN5CCCC5COC)c4)cc23)CC1 (stereo not shown) [Example 405, 3-[1-(ethylsulfonyl)-4-piperidinyl]-5-[5-({2-[(methyloxy)methyl]-1-pyrrolidinyl}methyl)-3-thienyl]-1H-indole-7-carboxamide trifluoroacetate] | ≤ 10
CCNC(C)c1cccc(-c2cc(C(N)=O)c3[nH]cc(C4CCN(S(=O)(=O)CC)CC4)c3c2)c1 (stereo not shown) [Example 280, 5-{3-[1-(ethylamino)ethyl]phenyl}-3-[1-(ethylsulfonyl)-4-piperidinyl]-1H-indole-7-carboxamide trifluoroacetate] | ≤ 10
CCS(=O)(=O)N1CCC(c2c[nH]c3c(C(N)=O)cc(-c4cc(F)cc(CNC5CCC5)c4)cc23)CC1 [Example 287, 5-{3-[(cyclobutylamino)methyl]-5-fluorophenyl}-3-[1-(ethylsulfonyl)-4-piperidinyl]-1H-indole-7-carboxamide trifluoroacetate] | ≤ 10
CCS(=O)(=O)N1CCC(c2c[nH]c3c(C(N)=O)cc(-c4ccc5c(c4)CN(CC4CC4)C5)cc23)CC1 [Example 425, 5-[2-(cyclopropylmethyl)-2,3-dihydro-1H-isoindol-5-yl]-3-[1-(ethylsulfonyl)-4-piperidinyl]-1H-indole-7-carboxamide] | ≤ 10
CCS(=O)(=O)N1CCC(c2c[nH]c3c(C(N)=O)cc(-c4ccc(CN5CCCC5)cc4)cc23)CC1 [Example 149, 3-[1-(ethylsulfonyl)-4-piperidinyl]-5-[4-(1-pyrrolidinylmethyl)phenyl]-1H-indole-7-carboxamide trifluoroacetate] | ≤ 10
CCS(=O)(=O)N1CCC(c2c[nH]c3c(C(N)=O)cc(-c4cccc(CNOC)c4)cc23)CC1 [Example 391, 3-[1-(ethylsulfonyl)-4-piperidinyl]-5-(3-{[(methyloxy)amino]methyl}phenyl)-1H-indole-7-carboxamide] | ≤ 10
CCS(=O)(=O)N1CCC(c2c[nH]c3c(C(N)=O)cc(-c4cccc(CNS(=O)(=O)c5csc6ccccc56)c4)cc23)CC1 [Example 382, 5-(3-{[(1-benzothien-3-ylsulfonyl)amino]methyl}phenyl)-3-[1-(ethylsulfonyl)-4-piperidinyl]-1H-indole-7-carboxamide] | ≤ 10
CCS(=O)(=O)N1CCC(c2c[nH]c3c(C(N)=O)cc(-c4ccc5c(c4)CN(C4CCCC4)C5)cc23)CC1 [Example 424, 5-(2-cyclopentyl-2,3-dihydro-1H-isoindol-5-yl)-3-[1-(ethylsulfonyl)-4-piperidinyl]-1H-indole-7-carboxamide] | ≤ 10
CCS(=O)(=O)N1CCC(c2c[nH]c3c(C(N)=O)cc(-c4cc(F)cc(CN5CCCCC5)c4)cc23)CC1 [Example 291, 3-[1-(ethylsulfonyl)-4-piperidinyl]-5-[3-fluoro-5-(1-piperidinylmethyl)phenyl]-1H-indole-7-carboxamide trifluoroacetate] | ≤ 10
CCS(=O)(=O)N1CCC(c2c[nH]c3c(C(N)=O)cc(-c4csc(CN5CCCC5CC(C)C)c4)cc23)CC1 (stereo not shown) [Example 93, 3-[1-(ethylsulfonyl)-4-piperidinyl]-5-(5-{[2-(2-methylpropyl)-1-pyrrolidinyl]methyl}-3-thienyl)-1H-indole-7-carboxamide trifluoroacetate] | ≤ 10
CCS(=O)(=O)N1CCC(c2c[nH]c3c(C(N)=O)cc(-c4ccc5c(c4)CN(C(=O)NS(=O)(=O)c4ccccc4)C5)cc23)CC1 [Example 428, 3-[1-(ethylsulfonyl)-4-piperidinyl]-5-(2-{[(phenylsulfonyl)amino]carbonyl}-2,3-dihydro-1H-isoindol-5-yl)-1H-indole-7-carboxamide] | ≤ 10
CCS(=O)(=O)N1CCC(c2c[nH]c3c(C(N)=O)cc(-c4ccc(OC)c(CN(C)C)c4)cc23)CC1 [Example 263, 5-[3-[(dimethylamino)methyl]-4-(methyloxy)phenyl]-3-[1-(ethylsulfonyl)-4-piperidinyl]-1H-indole-7-carboxamide trifluoroacetate] | ≤ 10
CCC(C)N1Cc2ccc(-c3cc(C(N)=O)c4[nH]cc(C5CCN(S(=O)(=O)CC)CC5)c4c3)cc2C1 (stereo not shown) [Example 422, 3-[1-(ethylsulfonyl)-4-piperidinyl]-5-[2-(1-methylpropyl)-2,3-dihydro-1H-isoindol-5-yl]-1H-indole-7-carboxamide] | ≤ 10
CCS(=O)(=O)N1CCC(c2c[nH]c3c(C(N)=O)cc(-c4ccc5c(c4)CN(CC(C)(C)C)C5)cc23)CC1 [Example 426, 5-[2-(2,2-dimethylpropyl)-2,3-dihydro-1H-isoindol-5-yl]-3-[1-(ethylsulfonyl)-4-piperidinyl]-1H-indole-7-carboxamide] | ≤ 10
CCS(=O)(=O)N1CCC(c2c[nH]c3c(C(N)=O)cc(-c4cc(CN5CCCC5)c(OC)c(OC)c4)cc23)CC1 [Example 57, 5-[3,4-bis(methyloxy)-5-(1-pyrrolidinylmethyl)phenyl]-3-[1-(ethylsulfonyl)-4-piperidinyl]-1H-indole-7-carboxamide] | ≤ 10
CCS(=O)(=O)N1CCC(c2c[nH]c3c(C(N)=O)cc(-c4cc(CN(C)CCO)c(OC)c(OC)c4)cc23)CC1 [Example 56, 3-[1-(ethylsulfonyl)-4-piperidinyl]-5-[3-{[(2-hydroxyethyl)(methyl)amino]methyl}-4,5-bis(methyloxy)phenyl]-1H-indole-7-carboxamide] | ≤ 10
CCS(=O)(=O)N1CCC(c2c[nH]c3c(C(N)=O)cc(-c4cccc(CN)c4)cc23)CC1 [Example 14, 5-[3-(aminomethyl)phenyl]-3-[1-(ethylsulfonyl)-4-piperidinyl]-1H-indole-7-carboxamide] | ≤ 10
CCS(=O)(=O)N1CCC(c2c[nH]c3c(C(N)=O)cc(-c4cccc(C5CCCCN5)c4)cc23)CC1 (stereo not shown) [Example 279, 3-[1-(ethylsulfonyl)-4-piperidinyl]-5-[3-(2-piperidinyl)phenyl]-1H-indole-7-carboxamide trifluoroacetate] | ≤ 10
CCS(=O)(=O)N1CCC(c2c[nH]c3c(C(N)=O)cc(-c4ccc(OC)c(CNC(C)C)c4)cc23)CC1 [Example 265, 3-[1-(ethylsulfonyl)-4-piperidinyl]-5-[3-{[(1-methylethyl)amino]methyl}-4-(methyloxy)phenyl]-1H-indole-7-carboxamide trifluoroacetate] | ≤ 10
